The source of these data is ChEMBL document CHEMBL1159090 (Bioorg Med Chem Lett, 2010).

Assay [1] deals with 5-hydroxytryptamine receptor 2A (Homo sapiens, UniProt P28223). As to the kind of experiment: Displacement of [3H]Ketanserin from human cloned 5HT2A receptor. For orientation: Displacement assays read how much labelled ligand stays bound in the presence of the test substance.
In a further assay the target is Histamine H1 receptor (Homo sapiens, UniProt P35367). As to the kind of experiment: Displacement of [3H]Pyrilamine from human cloned histamine H1 receptor.
Sequence of Histamine H1 receptor (P35367 whole entry): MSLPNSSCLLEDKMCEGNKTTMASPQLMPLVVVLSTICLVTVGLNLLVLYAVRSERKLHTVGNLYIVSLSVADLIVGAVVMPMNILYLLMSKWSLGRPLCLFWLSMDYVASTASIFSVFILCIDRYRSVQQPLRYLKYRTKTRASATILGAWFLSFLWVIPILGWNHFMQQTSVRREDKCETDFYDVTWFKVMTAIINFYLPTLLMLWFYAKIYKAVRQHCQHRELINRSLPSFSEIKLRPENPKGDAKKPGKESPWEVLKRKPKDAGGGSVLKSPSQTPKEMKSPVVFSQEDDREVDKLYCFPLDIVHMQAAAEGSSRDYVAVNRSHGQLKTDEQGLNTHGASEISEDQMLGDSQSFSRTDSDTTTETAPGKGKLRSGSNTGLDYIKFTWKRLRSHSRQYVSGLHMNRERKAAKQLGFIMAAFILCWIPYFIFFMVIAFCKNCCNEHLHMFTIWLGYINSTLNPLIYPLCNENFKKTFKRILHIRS

Sequence of 5-hydroxytryptamine receptor 2A (P28223 whole entry): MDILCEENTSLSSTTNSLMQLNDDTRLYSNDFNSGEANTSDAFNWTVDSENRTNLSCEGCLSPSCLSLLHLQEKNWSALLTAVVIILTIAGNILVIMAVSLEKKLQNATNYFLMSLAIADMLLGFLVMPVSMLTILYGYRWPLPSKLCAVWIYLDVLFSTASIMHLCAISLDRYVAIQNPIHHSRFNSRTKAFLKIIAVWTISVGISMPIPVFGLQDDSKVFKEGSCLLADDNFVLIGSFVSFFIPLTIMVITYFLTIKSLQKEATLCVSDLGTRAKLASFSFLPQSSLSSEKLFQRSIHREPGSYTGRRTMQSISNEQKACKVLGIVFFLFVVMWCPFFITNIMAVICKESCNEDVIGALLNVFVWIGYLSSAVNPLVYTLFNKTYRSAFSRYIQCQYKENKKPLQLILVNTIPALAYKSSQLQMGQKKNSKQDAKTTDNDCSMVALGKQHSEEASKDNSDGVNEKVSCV

In the case of `c1ccc(CCNCC2c3ccccc3Cc3ccccc32)cc1`, the inhibition constant (Ki) – broadly, a measure of affinity in units of concentration, obtained from inhibition or displacement – came out at 400 nM in assay [1] and 242 nM at Histamine H1 receptor.
The matching figures for `c1ccc(CCCCNCC2c3ccccc3Cc3ccccc32)cc1`: 365 nM and 964 nM.
The matching figures for `COc1ccc2c3c(ccc2c1)Cc1ccccc1C3CN` (stereo not drawn): 21 nM and 2640 nM.
Take `c1ccc(CCCNCC2c3ccccc3Cc3ccccc32)cc1`: the results for the inhibition constant Ki (in assay [1]; at Histamine H1 receptor) were 223 nM and 725 nM, respectively.
